How the values were obtained:
Assay in all cases: relative viability (nuclei count vs DMSO), 5 days (fraction); higher = more cells survive
A-427 = system: A-427
Method in brief: (§1)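 Relative viability equals treated-well nuclei counts divided by vehicle-well nuclei counts. Counts came from 4× images of lung cancer cell lines grown in 1536-well plates for 5 days after pin-tool dosing on the day after seeding. Dosing used one drug alone or a fixed anchor-drug dose plus five library-drug doses (not always all listed) in √10 steps, and values are medians of duplicate plates.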

ABC-1 = system: ABC-1
Method in brief: as §1

EPLC-272H = system: EPLC-272H
Method in brief: as §1

HCC-15 = system: HCC-15
Method in brief: as §1

LC-2-ad = system: LC-2-ad
Method in brief: as §1

LK-2 = system: LK-2
Method in brief: as §1

NCI-H1734 = system: NCI-H1734
Method in brief: as §1

NCI-H1793 = system: NCI-H1793
Method in brief: as §1

NCI-H1915 = system: NCI-H1915
Method in brief: as §1

NCI-H1944 = system: NCI-H1944
Method in brief: as §1

NCI-H2009 = system: NCI-H2009
Method in brief: as §1

NCI-H2023 = system: NCI-H2023
Method in brief: as §1

NCI-H2342 = system: NCI-H2342
Method in brief: as §1

NCI-H2347 = system: NCI-H2347
Method in brief: as §1

NCI-H322M = system: NCI-H322M
Method in brief: as §1

NCI-H358 = system: NCI-H358
Method in brief: as §1

NCI-H441 = system: NCI-H441
Method in brief: as §1

NCI-H522 = system: NCI-H522
Method in brief: as §1

NCI-H647 = system: NCI-H647
Method in brief: as §1

NCI-H838 = system: NCI-H838
Method in brief: as §1

RERF-LC-KJ = system: RERF-LC-KJ
Method in brief: as §1

SW 1573 = system: SW 1573
Method in brief: as §1

UMC-11 = system: UMC-11
Method in brief: as §1

Cc1csc(=NC2CCCCC2)n1/N=C/c1ccc(O)c(O)c1O [MIM1] + Nc1ncn([C@H]2C[C@H](O)[C@@H](CO)O2)c(=O)n1 [Decitabine] (partner 2 µM)
relative viability (A-427; first compound 0.2 µM): 0.583
relative viability (A-427; first compound 0.6325 µM): 0.578
relative viability (A-427; first compound 2 µM): 0.572
relative viability (A-427; first compound 6.325 µM): 0.541
relative viability (A-427; first compound 20 µM): 0.308
relative viability (ABC-1; first compound 0.2 µM): 0.974
relative viability (ABC-1; first compound 0.6325 µM): 1.28
relative viability (ABC-1; first compound 2 µM): 1.14
relative viability (ABC-1; first compound 6.325 µM): 0.944
relative viability (ABC-1; first compound 20 µM): 0.427
relative viability (EPLC-272H; first compound 0.2 µM): 0.36
relative viability (EPLC-272H; first compound 0.6325 µM): 0.382
relative viability (EPLC-272H; first compound 2 µM): 0.375
relative viability (EPLC-272H; first compound 6.325 µM): 0.29
relative viability (EPLC-272H; first compound 20 µM): 0.154
relative viability (HCC-15; first compound 0.2 µM): 0.634
relative viability (HCC-15; first compound 0.6325 µM): 0.607
relative viability (HCC-15; first compound 2 µM): 0.66
relative viability (HCC-15; first compound 6.325 µM): 0.341
relative viability (HCC-15; first compound 20 µM): 0.163
relative viability (LC-2-ad; first compound 0.2 µM): 0.777
relative viability (LC-2-ad; first compound 0.6325 µM): 0.736
relative viability (LC-2-ad; first compound 2 µM): 0.868
relative viability (LC-2-ad; first compound 6.325 µM): 0.453
relative viability (LC-2-ad; first compound 20 µM): 0.508
relative viability (LK-2; first compound 0.2 µM): 0.343
relative viability (LK-2; first compound 0.6325 µM): 0.288
relative viability (LK-2; first compound 2 µM): 0.246
relative viability (LK-2; first compound 6.325 µM): 0.346
relative viability (LK-2; first compound 20 µM): 0.163
relative viability (NCI-H1734; first compound 0.2 µM): 0.458
relative viability (NCI-H1734; first compound 0.6325 µM): 0.492
relative viability (NCI-H1734; first compound 2 µM): 0.452
relative viability (NCI-H1734; first compound 6.325 µM): 0.323
relative viability (NCI-H1734; first compound 20 µM): 0.178
relative viability (NCI-H1793; first compound 0.2 µM): 0.507
relative viability (NCI-H1793; first compound 2 µM): 0.518
relative viability (NCI-H1793; first compound 6.325 µM): 0.479
relative viability (NCI-H1793; first compound 20 µM): 0.495
relative viability (NCI-H1915; first compound 0.2 µM): 0.263
relative viability (NCI-H1915; first compound 0.6325 µM): 0.273
relative viability (NCI-H1915; first compound 2 µM): 0.256
relative viability (NCI-H1915; first compound 6.325 µM): 0.232
relative viability (NCI-H1915; first compound 20 µM): 0.245
relative viability (NCI-H1944; first compound 0.2 µM): 0.399
relative viability (NCI-H1944; first compound 0.6325 µM): 0.467
relative viability (NCI-H1944; first compound 2 µM): 0.403
relative viability (NCI-H1944; first compound 6.325 µM): 0.412
relative viability (NCI-H1944; first compound 20 µM): 0.355
relative viability (NCI-H2009; first compound 0.2 µM): 0.401
relative viability (NCI-H2009; first compound 0.6325 µM): 0.39
relative viability (NCI-H2009; first compound 2 µM): 0.371
relative viability (NCI-H2009; first compound 6.325 µM): 0.36
relative viability (NCI-H2009; first compound 20 µM): 0.291
relative viability (NCI-H2023; first compound 0.2 µM): 0.24
relative viability (NCI-H2023; first compound 0.6325 µM): 0.215
relative viability (NCI-H2023; first compound 2 µM): 0.212
relative viability (NCI-H2023; first compound 6.325 µM): 0.157
relative viability (NCI-H2023; first compound 20 µM): 0.0821
relative viability (NCI-H2342; first compound 0.2 µM): 0.724
relative viability (NCI-H2342; first compound 0.6325 µM): 0.721
relative viability (NCI-H2342; first compound 2 µM): 0.708
relative viability (NCI-H2342; first compound 6.325 µM): 0.664
relative viability (NCI-H2342; first compound 20 µM): 0.724
relative viability (NCI-H2347; first compound 0.2 µM): 0.592
relative viability (NCI-H2347; first compound 0.6325 µM): 0.592
relative viability (NCI-H2347; first compound 2 µM): 0.64
relative viability (NCI-H2347; first compound 6.325 µM): 0.574
relative viability (NCI-H2347; first compound 20 µM): 0.527
relative viability (NCI-H322M; first compound 0.2 µM): 0.622
relative viability (NCI-H322M; first compound 0.6325 µM): 0.74
relative viability (NCI-H322M; first compound 2 µM): 0.736
relative viability (NCI-H322M; first compound 6.325 µM): 0.642
relative viability (NCI-H322M; first compound 20 µM): 0.653
relative viability (NCI-H358; first compound 0.2 µM): 0.212
relative viability (NCI-H358; first compound 0.6325 µM): 0.224
relative viability (NCI-H358; first compound 2 µM): 0.216
relative viability (NCI-H358; first compound 6.325 µM): 0.148
relative viability (NCI-H358; first compound 20 µM): 0.119
relative viability (NCI-H441; first compound 0.2 µM): 0.132
relative viability (NCI-H441; first compound 0.6325 µM): 0.252
relative viability (NCI-H441; first compound 2 µM): 0.241
relative viability (NCI-H441; first compound 6.325 µM): 0.173
relative viability (NCI-H441; first compound 20 µM): 0.178
relative viability (NCI-H522; first compound 0.2 µM): 0.625
relative viability (NCI-H522; first compound 0.6325 µM): 0.632
relative viability (NCI-H522; first compound 2 µM): 0.711
relative viability (NCI-H522; first compound 6.325 µM): 0.691
relative viability (NCI-H522; first compound 20 µM): 0.63
relative viability (NCI-H647; first compound 0.2 µM): 0.414
relative viability (NCI-H647; first compound 0.6325 µM): 0.364
relative viability (NCI-H647; first compound 2 µM): 0.397
relative viability (NCI-H647; first compound 6.325 µM): 0.33
relative viability (NCI-H647; first compound 20 µM): 0.126
relative viability (NCI-H838; first compound 0.2 µM): 0.468
relative viability (NCI-H838; first compound 0.6325 µM): 0.462
relative viability (NCI-H838; first compound 2 µM): 0.513
relative viability (NCI-H838; first compound 6.325 µM): 0.394
relative viability (NCI-H838; first compound 20 µM): 0.221
relative viability (RERF-LC-KJ; first compound 0.2 µM): 0.624
relative viability (RERF-LC-KJ; first compound 0.6325 µM): 0.652
relative viability (RERF-LC-KJ; first compound 2 µM): 0.377
relative viability (RERF-LC-KJ; first compound 6.325 µM): 0.301
relative viability (RERF-LC-KJ; first compound 20 µM): 0.22
relative viability (SW 1573; first compound 0.2 µM): 0.592
relative viability (SW 1573; first compound 0.6325 µM): 0.516
relative viability (SW 1573; first compound 2 µM): 0.429
relative viability (SW 1573; first compound 6.325 µM): 0.306
relative viability (SW 1573; first compound 20 µM): 0.166
relative viability (UMC-11; first compound 0.2 µM): 0.565
relative viability (UMC-11; first compound 0.6325 µM): 0.585
relative viability (UMC-11; first compound 2 µM): 0.647
relative viability (UMC-11; first compound 6.325 µM): 0.607
relative viability (UMC-11; first compound 20 µM): 0.42
